How the values were obtained:
[1] = test system: Ca^2+ oscillations in somatosensory cortex slices; assay: Mitochondrial Ca2+ oscillations in organotypic somatosensory cortex slices of mtGA transgenic mice (bioluminescence imaging); format: cell-based, mouse; details: 50 μM; oscillations generated by removal of Mg2+ from buffer; slices of P4 mtGA mice
[2] = test system: cortical neurons; assay: Single-cell bioluminescence imaging of transfected cortical neurons; format: cell-based; details: cortical neurons with non-targeted GA reconstituted with h coelenterazine
Protocol: Cultures were plated on to glass-bottomed dishes and mounted to a stage adapter on a fully automated inverted microscope mounted in a black-box. GFP-Aequorin was reconstituted with 2.5-5 μM coelenterazine for 30 minutes at 37° C. Incubation of cells with coelenterazine that had been transfected with SynGA was undertaken at room temperature to reduce the consumption of the photoprotein during the reconstitution process. Cells were perfused with tyrodes buffer. Prior to bath application of NMDA, cells were perfused for 1 minute without Mg^2+. All recordings were made at room temperature (22-25° C.). […]
The fluorescence/bioluminescence wide field microscopy system was custom built by ScienceWares, Inc. The system includes a fully automated inverted microscope (200M, Zeiss Germany) and is housed in a light-tight dark box. […] Low level light emission (photon rate<100 kHz), was collected using an Image Photon Detector (IPD 3, Photek Ltd.) connected to the baseport of the microscope, which assigns an X, Y coordinate and time point for each detected photon (Miller et al., 1994). The system is fully controlled by the data acquisition software, which also converts single photon events into an image that can be superimposed with brightfield or fluorescence images made by a connected CCD camera to the C-port (Coolsnap HQ, Roper Scientific). […]

N[C@H](CCCP(=O)(O)O)C(=O)O [D-APV]
effect on Ca2+ oscillations detected within the mitochondrial matrix [1]: completely and reversibly blocked

[Cl-].[K+] [KCl]
Ca2+-induced bioluminescence signal ([2]; 90 mM): robust signal

CN[C@H](CC(=O)O)C(=O)O [NMDA]
Ca2+-induced bioluminescence signal ([2]; 100 μM): robust signal

Reference: patent publication US20070274923A1, “Non-invasive real-time in vivo bioluminescence imaging of local Ca2+ dynamics in living organisms” (priority 2005, published 2007)
